Source: paper PMC8729770, “In Vitro Evaluation of Antimicrobial Peptides from the Black Soldier Fly (Hermetia Illucens) against a Selection of Human Pathogens” (Microbiology Spectrum, 2022)
Values after ≈ are worked out from the molar mass of the structure shown. Where two headings read alike, the source gives them in different places. Ends that are not written are not given here. Peptide text beside a SMILES is read from it.

Legend:
P. aeruginosa ATCC 9027 = type: cell-based, Pseudomonas aeruginosa; settings: for MBC P. aeruginosa ATCC 9027: plated on MHA, ≥3 log reduction vs growth control
Procedure: (§1) To detect antimicrobial activity of the BSF AMPs, the peptide library underwent screening against a panel of microorganisms, consisting of S. aureus ATCC 6538, E. coli ATCC 8739, P. aeruginosa ATCC 9027, C. albicans B59630, and A. fumigatus B42928. Serial dilutions of the peptides were prepared from the DMSO stock solutions in sterile demineralized water in 96-well plates using an automated liquid-handling workstation (Beckman Coulter Biomek 3000) in end volumes of 10 μL. The final in-plate concentration of DMSO was <1%. Peptide concentrations ranged from 64 μM to 0.25 μM for the first evaluation, and from 32 μM to 0.016 μM for the independent repeat. As references, doxycycline (Sigma-Aldrich; S. aureus, E. coli, P. aeruginosa), flucytosine (Sigma-Aldrich; C. albicans), and econazole (Sigma-Aldrich; A. fumigatus) were used. Suspensions of a starting inoculum of 5 × 10^3 CFU/mL (E. coli, S. aureus, C. albicans, A. fumigatus) and 5 × 10^4 CFU/mL (P. aeruginosa) were prepared in MHB (bacterial species) or RPMI medium (fungal species) and 190 μL was added to the 96-well plates. Plates were incubated for 16 h (E. coli, S. aureus, P. aeruginosa), 24 h (C. albicans), or 48 h (A. fumigatus) at 37°C. After incubation, read-out of the antimicrobial activity was performed using a resazurin assay. Then, 20 μL of a 0.01% (wt/vol) resazurin (Sigma-Aldrich) solution was added to each well and plates were incubated for 15 min (S. aureus), 30 min (E. coli), 45 min (P. aeruginosa), 4 h (C. albicans), or 17 h (A. fumigatus) to allow resazurin reduction to take place. Fluorescence was read using a microplate reader (Telix) at λexcitation = 550 nm and λemission = 590. […] MIC values were determined visually. Medium in the wells with no visual growth was plated on MHA to detect the MBC, defined as ≥3 log reduction compared with the growth control.

S. aureus ATCC 6538 = type: cell-based, Staphylococcus aureus; settings: for MIC S. aureus ATCC 6538: determined visually, 16 h; for MBC S. aureus ATCC 6538: wells without visual growth plated on MHA, ≥3 log reduction vs growth control
Procedure: as §1

E. coli ATCC 8739 = type: cell-based, Escherichia coli
Procedure: as §1

[1] = repeat 1, 64-0.25 μM, determined visually, 16 h
[2] = repeat 2, 32-0.016 μM, determined visually, 16 h
[3] = repeat 1, plated on MHA, ≥3 log reduction vs growth control
[4] = repeat 2, plated on MHA, ≥3 log reduction vs growth control

Row | Molecule | MIC P. aeruginosa ATCC 9027 (P. aeruginosa ATCC 9027; [1]) [µM] | MBC P. aeruginosa ATCC 9027 (P. aeruginosa ATCC 9027; repeat 1) | MIC P. aeruginosa ATCC 9027 (P. aeruginosa ATCC 9027; [2]) [µM] | MBC P. aeruginosa ATCC 9027 (P. aeruginosa ATCC 9027; repeat 2) [µM] | MIC S. aureus ATCC 6538 (S. aureus ATCC 6538; repeat 1, 64-0.25 μM) [µM] | MIC S. aureus ATCC 6538 (S. aureus ATCC 6538; repeat 2, 32-0.016 μM) [µM] | MIC E. coli ATCC 8739 (E. coli ATCC 8739; [1]) [µM] | MBC E. coli ATCC 8739 (E. coli ATCC 8739; [3]) | MIC E. coli ATCC 8739 (E. coli ATCC 8739; [2]) [µM] | MBC E. coli ATCC 8739 (E. coli ATCC 8739; [4]) [µM] | MIC P. aeruginosa ATCC 9027 (P. aeruginosa ATCC 9027; ATCC 9027, 16 h) [µM] | MBC E. coli ATCC 8739 (E. coli ATCC 8739; ATCC 8739, 16 h) [µM] | MIC E. coli ATCC 8739 (E. coli ATCC 8739; ATCC 8739, 16 h) [µM] | bactericidal or bacteriostatic mechanism (S. aureus ATCC 6538; MBC determination) | MBC S. aureus ATCC 6538 (S. aureus ATCC 6538; repeat 1) | MBC S. aureus ATCC 6538 (S. aureus ATCC 6538; repeat 2)
1 | GWWKRVFKPVEKLGQRVRDAGIQGLEIAQQGANVLATARGGPPQQ-NH2 [Hill-Cec3] | 4.00 | 16.00 µM | 2.00 | 2.00 | > 64.00 | > 32.00 | 1.00 | 1.00 µM | 0.50 | 32.00 | – | – | – | – | – | –
2 | GWWKRVFKPVERLGQRVRDAGIQGLQIAQQGANVLATVRGGPPQQ-NH2 [Hill-Cec4] | 1.00 | 16.00 µM | 2.00 | 2.00 | > 64.00 | > 32.00 | 1.00 | static | 2.00 | 2.00 | – | – | – | – | – | –
3 | GWWKRVFKPVEKFGQRVRDAGIQGIEIAQQGANVLATARGGPPQQ-NH2 [Hill-Cec8] | – | 64.00 µM | 8.00 | 8.00 | > 64.00 | > 32.00 | – | – | 2.00 | 8.00 | 4.00 | 1.00 | 1.00 | – | – | –
4 | RSLWKKLFKPVERAGQRIRDATIKGIVIAQQGANVLATIRGGPAIPPGQ-NH2 [Hill-Cec12] | – | static | 2.00 | 8.00 | > 64.00 | > 32.00 | 0.25 | – | 2.00 | 8.00 | 1.00 | 1.00 | – | – | – | –
5 | GWWKRVFKPVEKFGQRVRDAGVQGIAIAQQGANVLATARGGPPQQ-NH2 [Hill-Cec2] | 4.00 | 16.00 µM | 2.00 | 2.00 | > 64.00 | > 32.00 | 1.00 | 1.00 µM | 2.00 | 2.00 | – | – | – | – | – | –
6 | CC[C@H](C)[C@H](NC(=O)[C@H](CS)NC(=O)[C@H](Cc1c[nH]cn1)NC(=O)[C@H](CC(C)C)NC(=O)[C@H](C)NC(=O)[C@H](CS)NC(=O)[C@H](C)NC(=O)[C@H](C)NC(=O)[C@H](Cc1c[nH]cn1)NC(=O)CNC(=O)[C@@H](NC(=O)[C@H](CCCCN)NC(=O)[C@H](Cc1ccccc1)NC(=O)[C@@H]1CCCN1C(=O)[C@H](CO)NC(=O)[C@H](CC(C)C)NC(=O)[C@H](CC(C)C)NC(=O)[C@H](CC(=O)O)NC(=O)[C@H](CS)NC(=O)[C@@H](NC(=O)[C@H](C)N)[C@@H](C)O)C(C)C)C(=O)N[C@@H](C)C(=O)N[C@@H](CC(C)C)C(=O)NCC(=O)N[C@@H](CCCNC(=N)N)C(=O)N[C@@H](CCCNC(=N)N)C(=O)NCC(=O)NCC(=O)N[C@@H](Cc1c[nH]c2ccccc12)C(=O)N[C@@H](CS)C(=O)N[C@@H](CC(=O)O)C(=O)NCC(=O)N[C@@H](CCCNC(=N)N)C(=O)N[C@@H](C)C(=O)N[C@H](C(=O)N[C@@H](CS)C(=O)N[C@@H](CC(N)=O)C(=O)N[C@@H](CS)C(=O)N[C@@H](CCCNC(=N)N)C(=O)N[C@@H](CCCNC(=N)N)C(=O)O)C(C)C [Hill-Def4] (H-ATCDLLSPFKVGHAACALHCIALGRRGGWCDGRAVCNCRR-OH; N-terminus and C-terminus assumed) | > 64.00 | – | > 32.00 | – | 1.00 (≈ 4.26 µg/mL) | 8.00 (≈ 34.1 µg/mL) | > 64.00 | – | > 32.00 | – | – | – | – | bacteriostatic | static | static
